# Source: patent US4112228A, “7-(D-α-Hydroxy-2-arylacetamido)-3-(2-carboxyalkyl-2,3-dihydro-s-tri azolo-[4,3-b]pyridazin-3-on-6-ylthiomethyl)-3-cephem-4-carboxylic acids and derivatives” (priority 1977, dated 1978)
# Where two headings read alike, the source gives them in different places.
# Tests used:
# [1] = test system: Sal. enteritidis; assay: MIC by Steers' agar dilution method; details: Salmonella enterica
# [2] = test system: Citrobacter sp.; assay: MIC by Steers' agar dilution method
# [3] = test system: Sal. typhosa; assay: MIC by Steers' agar dilution method; type: cell-based; details: MHA
# [4] = test system: St. faecalis; assay: MIC by Steers' agar dilution method; details: Enterococcus faecalis
# [5] = test system: Pr. vulgaris; assay: MIC by Steers' agar dilution method; details: Proteus vulgaris
# [6] = test system: D. pneumoniae; assay: MIC by Steers' agar dilution method
# [7] = test system: K. pneumoniae A9977; assay: Standard experimental infection in mice; type: in vivo; details: for ED50: Klebsiella pneumoniae, A9977, read-out: PD50
# [8] = Stability in solution (remaining activity by paper disc assay); type: physicochemical; details: for Remaining Activity (%): 0 days; for remaining at 48 h: 2 days; for remaining at 72 h: 3 days; for remaining at 168 h: 7 days
# Description: Stability of BB-[…] was determined in both a 10% and an 0.02% solution. The stability is indicated as the relative activity remaining in the test solution at given periods to the initial solution. The activity was assayed using paper discs on B. subtilis PCI 219 plate (pH 6).
# [9] = test system: Serr. marcescens; assay: MIC by Steers' agar dilution method; details: Serratia marcescens
# [10] = test system: bacteria of Table 4; assay: Media effect on MIC (Nutrient, Mueller-Hinton, Heart-Infusion agar); type: cell-based; details: NA, MHA, HIA
# [11] = Nephrotoxicity test in rabbits; details: 100 mg./kg. (iv)
# [12] = test system: Sal. anthracis; assay: microbe, parasite or virus in culture; type: cell-based
# [13] = test system: Pr. rettgeri; assay: MIC by Steers' agar dilution method; details: Providencia rettgeri
# [14] = 0.02% solution, pH 4 (0.1 M AcOH - NaOAc buffer)
# [15] = 0.02% solution, pH 7 (0.1 M phosphate buffer)
# [16] = 0.1 m nh4oh-nh4cl buffer, 0.02% solution, pH 9 (0.1 M NH4 OH--NH4 Cl buffer)
# [17] = 10% aqueous solution, room temperature, pH 6.1 (unadjusted)
smiles,measurement,setting,value
"O=C(O)Cn1nc2ccc(SCC3=C(C(=O)O)N4C(=O)C(NC(=O)[C@H](O)c5ccccc5)[C@H]4SC3)nn2c1=O (stereo partly drawn) [BB-S488, 7-(D-Mandelamido)-3-(2-carboxymethyl-2,3-dihydro-s-triazolo[4,3-b]pyridazin-3-on-6-ylthiomethyl)-3-cephem-4-carboxylic Acid]",MIC,"[1]; A9531, MHA, Table 1",0.05 µg/mL
same,MIC,"[1]; MHA, Example 10",0.025 µg/mL
same,MIC,"[1]; Se-1 A9531, MHA, Table 3",0.1 µg/mL
same,MIC,[2]; Citrobacter,1.6 µg/mL
same,MIC,"[2]; Cx-2 A20694, MHA, Table 3",1.6 µg/mL
same,MIC,"[2]; Cx-3 A20695, MHA, Table 3",1.6 µg/mL
same,MIC,"[3]; A9498, Table 1",0.05 µg/mL
same,MIC,[3]; Example 10,0.05 µg/mL
same,MIC,"[4]; A9536, MHA, Table 1",100 µg/mL
same,MIC,"[4]; MHA, Example 10",> 100 µg/mL
same,MIC,"[4]; Sf-3 S. faecalis A9536, HIA, Table 4",> 100 µg/mL
same,MIC,"[4]; Sf-3 S. faecalis A9536, MHA, Table 4",> 100 µg/mL
same,MIC,"[4]; Sf-3 S. faecalis A9536, NA, Table 4",> 100 µg/mL
same,MIC,"[5]; A9436, MHA, Table 1",0.1 µg/mL
same,MIC,"[5]; A9699, MHA, Table 1",0.2 µg/mL
same,MIC,"[5]; ATCC9920, Pv-4 ATCC 9920, MHA, Table 3",0.1 µg/mL
same,MIC,"[5]; Pv-1 A9436, HIA, Table 4",0.2 µg/mL
same,MIC,"[5]; Pv-1 A9436, MHA, Table 3",0.2 µg/mL
same,MIC,"[5]; Pv-1 A9436, MHA, Table 4",0.1 µg/mL
same,MIC,"[5]; Pv-1 A9436, NA, Table 4",0.2 µg/mL
same,MIC,"[5]; Pv-2 A9526, MHA, Table 3",6.3 µg/mL
same,MIC,"[5]; Pv-3 A9699 (β-lactamase), HIA, Table 4",100 µg/mL
same,MIC,"[5]; Pv-3 A9699 (β-lactamase), MHA, Table 4",0.8 µg/mL
same,MIC,"[5]; Pv-3 A9699 (β-lactamase), NA, Table 4",0.8 µg/mL
same,MIC,"[5]; Pv-3 A9699, MHA, Table 3",6.3 µg/mL
same,MIC,"[5]; Pv-5 A9539, MHA, Table 3",25 µg/mL
same,MIC,"[5]; Pv-6 A9716, MHA, Table 3",0.1 µg/mL
same,MIC,"[5]; Pv-7 A21240, MHA, Table 3",25 µg/mL
same,MIC,"[5]; strain not given (1st of 2), MHA, Example 10",0.1 µg/mL
same,MIC,"[5]; strain not named (2nd of 2), MHA, Example 10",0.8 µg/mL
same,MIC,"[6]; Dp-2 Type I Neufeld, MHA, Table 2",0.2 µg/mL
same,MIC,"[6]; Dp-3 Type III, MHA, Table 2",0.2 µg/mL
same,MIC,"[6]; Dp-4 A9585, MHA, Table 2",0.2 µg/mL
same,MIC,"[6]; Dp-5 A15069, MHA, Table 2",0.2 µg/mL
same,MIC,"[6]; Dp-6 A20167, MHA, Table 2",0.2 µg/mL
same,MIC,"[6]; Dp-7 A20759, MHA, Table 2",0.2 µg/mL
same,MIC,"[6]; Dp-8 A20769, MHA, Table 2",0.2 µg/mL
same,MIC,"[6]; Dp-9 A20770, MHA, Table 2",0.2 µg/mL
same,MIC,[6]; Streptococcus pneumoniae,0.2 µg/mL
same,No. of survivors/No. tested,"[7]; 0.1 mg./kg., Table 6",0/5
same,No. of survivors/No. tested,"[7]; 0.4 mg./kg., Table 6",4/5
same,No. of survivors/No. tested,"[7]; 1.6 mg./kg., Table 6",5/5
same,No. of survivors/No. tested,"[7]; 6.3 mg./kg., Table 6",5/5
same,No. of survivors/No. tested,"[7]; 25 mg./kg., Table 6",5/5
same,ED50,"[7]; Run C-805, 3×10^3 LD50, single sc",0.26 mg/kg
same,ED50,[7]; Table 6,0.26 mg/kg
same,No. of survivors/No. tested,"[7]; Run C-805, 3×10^3 LD50, single sc, 0.1 mg./kg.",0/5
same,No. of survivors/No. tested,"[7]; Run C-805, 3×10^3 LD50, single sc, 0.4 mg./kg.",4/5
same,No. of survivors/No. tested,"[7]; Run C-805, 3×10^3 LD50, single sc, 1.6 mg./kg.",5/5
same,No. of survivors/No. tested,"[7]; Run C-805, 3×10^3 LD50, single sc, 6.3 mg./kg.",5/5
same,No. of survivors/No. tested,"[7]; Run C-805, 3×10^3 LD50, single sc, 25 mg./kg.",5/5
same,Remaining Activity (%),[8]; [14],100%
same,remaining at 48 h,[8]; [14],93%
same,remaining at 72 h,[8]; [14],78%
same,remaining at 168 h,[8]; [14],102%
same,Remaining Activity (%),[8]; [15],100%
same,remaining at 48 h,[8]; [15],87%
same,remaining at 72 h,[8]; [15],64%
same,remaining at 168 h,[8]; [15],56%
same,Remaining Activity (%),"[8]; 0.02% solution, pH 9 (0.1 M NH4 OH--NH4 Cl buffer)",100%
same,remaining at 24 h,"[8]; 0.1 m nh4oh-nh4cl buffer, 0.02% solution, pH 9 (0.1 M NH4 OH--NH4 Cl buffer), 1 day",20%
same,remaining at 48 h,[8]; [16],14%
same,remaining at 72 h,[8]; [16],13%
same,remaining at 168 h,[8]; [16],0%
same,Remaining Activity (%),[8]; [17],100%
same,remaining at 48 h,[8]; [17],128%
same,remaining at 72 h,[8]; [17],90%
same,remaining at 168 h,[8]; [17],116%
same,MIC,"[9]; A20019, MHA, Table 1",100 µg/mL
same,MIC,"[9]; MHA, Example 10",> 100 µg/mL
same,MIC,"[9]; Sm-1 A20019 (β-lactamase), HIA, Table 4",> 100 µg/mL
same,MIC,"[9]; Sm-1 A20019 (β-lactamase), MHA, Table 4",> 100 µg/mL
same,MIC,"[9]; Sm-1 A20019 (β-lactamase), NA, Table 4",> 100 µg/mL
same,MIC,"[9]; Sm-1 A20019, MHA, Table 3",25 µg/mL
same,MIC,"[9]; Sm-2 A20335, MHA, Table 3",3.1 µg/mL
same,MIC,"[9]; Sm-3 A20336, HIA, Table 4",> 100 µg/mL
same,MIC,"[9]; Sm-3 A20336, MHA, Table 3",6.3 µg/mL
same,MIC,"[9]; Sm-3 A20336, MHA, Table 4",0.8 µg/mL
same,MIC,"[9]; Sm-3 A20336, NA, Table 4",100 µg/mL
same,MIC,"[9]; Sm-4 A20442, MHA, Table 3",6.3 µg/mL
same,MIC,"[9]; Sm-5 A20222, MHA, Table 3",3.1 µg/mL
same,MIC,"[9]; Sm-6 A20460, MHA, Table 3",6.3 µg/mL
same,MIC,"[9]; Sm-9 A20333, MHA, Table 3",6.3 µg/mL
same,MIC,"[9]; Sm-10 A20334, MHA, Table 3",6.3 µg/mL
same,MIC,"[9]; Sm-11 A20459, MHA, Table 3",6.3 µg/mL
same,MIC,"[9]; Sm-12 A20461, MHA, Table 3",6.3 µg/mL
same,Media effect on MIC,[10],little media effect
same,Nephrotoxicity,[11],No nephrotoxic sign was seen
same,MIC,[12],0.1 µg/mL
same,MIC,"[13]; A15167, MHA, Table 1",0.05 µg/mL
same,MIC,"[13]; MHA, Example 10",0.2 µg/mL
same,MIC,"[13]; Pr-1 A15167, HIA, Table 4",0.1 µg/mL
same,MIC,"[13]; Pr-1 A15167, MHA, Table 3",0.1 µg/mL
same,MIC,"[13]; Pr-1 A15167, MHA, Table 4",0.05 µg/mL
same,MIC,"[13]; Pr-1 A15167, NA, Table 4",0.4 µg/mL
same,MIC,"[13]; Pr-2 A9637, MHA, Table 3",0.1 µg/mL
same,MIC,"[13]; Pr-4 A20645, MHA, Table 3",0.1 µg/mL
same,MIC,"[13]; Pr-5 A20915, MHA, Table 3",0.2 µg/mL
same,MIC,"[13]; Pr-6 A20920, MHA, Table 3",0.1 µg/mL
